#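 Cells were grown in 96-well plates and exposed to each compound for 48 hours at five concentrations; endpoints were interpolated linearly between bracketing concentrations, or set to the highest concentration if not reached. GI50 marks 50% less growth.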 Active and inactive are the calls of the source. Rule as the data show it: active = GI50 up to about 1.1 µM and inactive = higher.
# How the values were obtained:
# Test in all cases: NCI anticancer screen, dose series, 48 h
# [1] = test system: ACHN
# [2] = test system: CAKI-1
# [3] = test system: HL-60
# [4] = test system: K562
# [5] = test system: LOX IMVI
# [6] = test system: LXFL 529
# [7] = test system: M14
# [8] = test system: M19-MEL
# [9] = test system: NCI-H522
# [10] = test system: OVCAR-4
# [11] = test system: SF-268
# [12] = test system: SF-295
# [13] = test system: SK-MEL-28
# [14] = test system: SW-620
# [15] = test system: TK-10
# [16] = test system: DU-145
# [17] = test system: Hs-578T
# [18] = test system: MDA-MB-231
# [19] = test system: MDA-MB-435
# [20] = test system: MDA-N
Compound,GI50 [1],GI50 [2],GI50 [3],GI50 [4],GI50 [5],GI50 [6],GI50 [7],GI50 [8],GI50 [9],GI50 [10],GI50 [11],GI50 [12],GI50 [13],GI50 [14],GI50 [15],GI50 [16],GI50 [17],GI50 [18],GI50 [19],GI50 [20]
OC(c1ccccc1)(c1ccccc1)c1ccncc1,> 100 µM (inactive),> 100 µM (inactive),> 100 µM (inactive),> 100 µM (inactive),> 100 µM (inactive),> 100 µM (inactive),> 100 µM (inactive),> 100 µM (inactive),> 100 µM (inactive),> 100 µM (inactive),> 100 µM (inactive),> 100 µM (inactive),> 100 µM (inactive),> 100 µM (inactive),> 100 µM (inactive),,,,,
Nc1ccccc1C(=O)NC(=O)Nc1ccc(Oc2ncc(Br)cn2)c(Cl)c1,0.0614 µM (active),< 0.01 µM (active),< 0.01 µM (active),< 0.01 µM (active),< 0.01 µM (active),< 0.01 µM (active),0.0152 µM (active),< 0.01 µM (active),< 0.01 µM (active),0.698 µM (active),< 0.01 µM (active),< 0.01 µM (active),< 0.01 µM (active),< 0.01 µM (active),0.0274 µM (active),< 0.0123 µM (active),< 0.01 µM (active),0.0145 µM (active),< 0.01 µM (active),< 0.01 µM (active)
COC(=O)c1csnn1,> 100 µM (inactive),,> 100 µM (inactive),> 100 µM (inactive),> 100 µM (inactive),> 100 µM (inactive),> 100 µM (inactive),> 100 µM (inactive),> 100 µM (inactive),,> 100 µM (inactive),> 100 µM (inactive),> 100 µM (inactive),> 100 µM (inactive),> 100 µM (inactive),,,,,
N#Cc1nc(Nc2cccc3ccccc23)sc1N,25.1 µM (inactive),28.7 µM (inactive),20.7 µM (inactive),25.8 µM (inactive),17.3 µM (inactive),29.9 µM (inactive),39.9 µM (inactive),28.5 µM (inactive),15.9 µM (inactive),57.7 µM (inactive),20.4 µM (inactive),28.3 µM (inactive),37.9 µM (inactive),41.2 µM (inactive),40.6 µM (inactive),,,,,
CC(=O)NC(CCCNC(=O)NCCCl)C(=O)NCc1ccccc1 (stereo not drawn),> 100 µM (inactive),> 100 µM (inactive),> 100 µM (inactive),> 100 µM (inactive),,> 100 µM (inactive),> 100 µM (inactive),> 100 µM (inactive),> 100 µM (inactive),> 100 µM (inactive),> 100 µM (inactive),> 100 µM (inactive),> 100 µM (inactive),> 100 µM (inactive),> 100 µM (inactive),,,,,
C/C(=N\NC(C)(C)C)c1sc(-c2nc(C)c(/C(C)=N/NC(C)(C)C)s2)nc1C,> 100 µM (inactive),> 100 µM (inactive),> 100 µM (inactive),> 100 µM (inactive),> 100 µM (inactive),> 100 µM (inactive),> 100 µM (inactive),> 100 µM (inactive),> 100 µM (inactive),> 100 µM (inactive),> 100 µM (inactive),> 100 µM (inactive),> 100 µM (inactive),> 100 µM (inactive),,,,,,
CCOP(=O)(OCC)/C(C#N)=C/c1ccc[nH]1,> 100 µM (inactive),> 100 µM (inactive),> 100 µM (inactive),> 100 µM (inactive),> 100 µM (inactive),> 100 µM (inactive),> 100 µM (inactive),> 100 µM (inactive),> 100 µM (inactive),> 100 µM (inactive),> 100 µM (inactive),> 100 µM (inactive),> 100 µM (inactive),> 100 µM (inactive),74.6 µM (inactive),,,,,
Cc1ccc(SC2C(C)(C)N(C(C)C)P2(=O)N(C(C)C)C(C)C)cc1 (stereo not drawn),15.8 µM (inactive),47 µM (inactive),14.7 µM (inactive),17.7 µM (inactive),28 µM (inactive),21.3 µM (inactive),71.4 µM (inactive),26.7 µM (inactive),20.5 µM (inactive),> 64.9 µM (inactive),52 µM (inactive),70.8 µM (inactive),> 95.7 µM (inactive),> 25.5 µM (inactive),> 100 µM (inactive),,,,,
CN(C)CN(C)c1nc(N(C)C)nc(N(C)C)n1,> 100 µM (inactive),> 100 µM (inactive),> 100 µM (inactive),> 100 µM (inactive),> 100 µM (inactive),84.7 µM (inactive),> 100 µM (inactive),> 100 µM (inactive),> 100 µM (inactive),> 100 µM (inactive),> 100 µM (inactive),> 100 µM (inactive),> 100 µM (inactive),> 100 µM (inactive),> 100 µM (inactive),,,,,
CCOC(C[C@H](O)[C@H]1COC(=S)S1)OCC,> 100 µM (inactive),,> 100 µM (inactive),,> 100 µM (inactive),> 100 µM (inactive),> 100 µM (inactive),> 100 µM (inactive),> 100 µM (inactive),,> 100 µM (inactive),> 100 µM (inactive),,> 100 µM (inactive),> 100 µM (inactive),,,,,
C/C(=N/N)c1sc(-c2nc(C)c(/C(C)=N\N)s2)nc1C,> 100 µM (inactive),> 100 µM (inactive),30.1 µM (inactive),47.3 µM (inactive),39.5 µM (inactive),50.8 µM (inactive),> 95.3 µM (inactive),> 100 µM (inactive),> 53.6 µM (inactive),> 100 µM (inactive),> 100 µM (inactive),> 100 µM (inactive),> 100 µM (inactive),> 100 µM (inactive),> 100 µM (inactive),,,,,
O=C1C=C(Nc2ccccc2C(=O)CC(=O)C(=O)Nc2ccc(Cl)cc2)c2ccccc2C1=O,18.2 µM (inactive),29.8 µM (inactive),3.32 µM (inactive),3.24 µM (inactive),1.93 µM (inactive),7.52 µM (inactive),10.9 µM (inactive),1.95 µM (inactive),7.85 µM (inactive),10.9 µM (inactive),14.2 µM (inactive),,16.7 µM (inactive),7.11 µM (inactive),> 74.5 µM (inactive),,,,,
COc1cc(=O)oc(/C=C/CO)c1C,> 100 µM (inactive),> 100 µM (inactive),> 100 µM (inactive),> 100 µM (inactive),> 100 µM (inactive),> 100 µM (inactive),> 100 µM (inactive),> 100 µM (inactive),28.9 µM (inactive),> 100 µM (inactive),> 100 µM (inactive),> 100 µM (inactive),> 100 µM (inactive),> 100 µM (inactive),> 100 µM (inactive),,,,,
O=C1OC(CC(=O)c2ccc(Cl)cc2Cl)C(Cl)=C1Cl (stereo not drawn),> 41.1 µM (inactive),30.8 µM (inactive),26.7 µM (inactive),29.1 µM (inactive),24.5 µM (inactive),17.1 µM (inactive),27.2 µM (inactive),20 µM (inactive),17.6 µM (inactive),42.6 µM (inactive),25.2 µM (inactive),> 100 µM (inactive),19.1 µM (inactive),19.4 µM (inactive),> 55.5 µM (inactive),,,,,
CN1C/C(=C\c2ccco2)c2nc(N)nc(-c3ccco3)c2C1,> 100 µM (inactive),> 100 µM (inactive),52.7 µM (inactive),> 100 µM (inactive),60.4 µM (inactive),74.1 µM (inactive),> 100 µM (inactive),> 100 µM (inactive),> 100 µM (inactive),,> 100 µM (inactive),> 100 µM (inactive),> 100 µM (inactive),> 100 µM (inactive),> 100 µM (inactive),,,,,
C1=CC=C2NCCCCCC/N=C3\C=CC=CC=C3NCCc3cccc(c3)CC/N=C/2C=C1,33 µM (inactive),33.3 µM (inactive),5.43 µM (inactive),4.59 µM (inactive),4.63 µM (inactive),10.7 µM (inactive),11 µM (inactive),16.7 µM (inactive),16.9 µM (inactive),12.7 µM (inactive),31.7 µM (inactive),16.9 µM (inactive),,4.67 µM (inactive),,,,,,
CCOC(=O)Oc1cc2c(c(OC)c1OC)-c1ccc(OC)c(=O)cc1C(NC(C)=O)CC2 (stereo not drawn),0.398 µM (active),0.239 µM (active),< 0.0118 µM (active),0.0138 µM (active),0.0153 µM (active),< 0.0162 µM (active),0.0218 µM (active),< 0.0164 µM (active),0.014 µM (active),11.2 µM (inactive),0.0197 µM (active),0.0574 µM (active),< 0.215 µM (active),< 0.0122 µM (active),3.78 µM (inactive),0.1 µM (active),0.0619 µM (active),0.0281 µM (active),< 0.01 µM (active),< 0.01 µM (active)
CCN(CC)CCNc1ccc2nnn3c4ccc([N+](=O)[O-])cc4c(=O)c1c23,3.28 µM (inactive),4.14 µM (inactive),6.52 µM (inactive),6.7 µM (inactive),4.58 µM (inactive),4.98 µM (inactive),11.8 µM (inactive),> 20.5 µM (inactive),8.15 µM (inactive),9.18 µM (inactive),6.37 µM (inactive),5.82 µM (inactive),14 µM (inactive),3 µM (inactive),11.6 µM (inactive),7.69 µM (inactive),14.1 µM (inactive),3.94 µM (inactive),> 100 µM (inactive),71.8 µM (inactive)
